Where a name gives a salt, the structure may show the parent alone.
Assay: Pharmacokinetic study in rats
Details: for concentration at 60 min / concentration at 90 min / concentration at 120 min / concentration at 240 min / concentration at 360 min / concentration at 480 min / concentration at 720 min / concentration at 1440 min / concentration at 5 min / concentration at 15 min / concentration at 30 min: oral, 20 μmol/kg, intragastric 20 μmol/kg
Protocol: All stock solutions of the test compound were sonicated and heated to become clarified and formulated to a 25 mM solution with DMSO.
All samples were dosed at 20 μmol/kg.
The blood sample was centrifuged at 8000 rpm for 5 min, the plasma was collected in a centrifuge tube and stored at −20° C. for use.
Treatment of the plasma sample: the proteins in 50 μL plasma sample were precipitated with 200 μL acetonitrile containing internal standard (Propranolol (PRO), 2.5 ng/mL). Vortexed for 10 min, centrifuged at 6000 g for 10 min, the supernatant was taken and 5-fold diluted with the mobile phase, and the supernatant was injected into a 96-well plate for analysis.
flow rate: 0.3 mL/min; injection volume: 2 μL; column temperature 45° C. The gradient elution procedure was: […]
The ion source was an electrospray ionization source (Turbo Ionspray, ESI); the electrospray voltage was 5500V; the temperature was 500° C.; pressure of ion source gas 1 (N2) was 50 psi; pressure of ion source gas 2 (N2) was 50 psi; pressure of curtain gas (N2) 20 psi; pressure of collision gas (CAD) was Medium; scan time was 100 ms; positive ion mode detection; scan mode was multiple reaction monitoring (MRM), ion reaction and collision energy (CE) for quantitative analysis, declustering potential (DP) are shown in the following table: […]

[1] = SD (Sprague-Dawley), rat, plasma, Plasma concentration Mean, SD rats, mean of 3 rats
[2] = SD (Sprague-Dawley), rat, plasma, Plasma concentration Rat1, SD rats, Rat1
[3] = SD (Sprague-Dawley), rat, plasma, Plasma concentration Rat 2, SD rats, Rat 2
[4] = SD (Sprague-Dawley), rat, plasma, Plasma concentration Rat 3, SD rats, Rat 3
[5] = SD rats, intragastric, 20 umol/kg
[6] = SD, rat, plasma, Plasma concentration Mean, SD rats, mean of 3 rats
[7] = SD, rat, plasma, Plasma concentration Rat1, SD rats, Rat1
[8] = SD, rat, plasma, Plasma concentration Rat 2, SD rats, Rat 2
[9] = SD, rat, plasma, Plasma concentration Rat 3, SD rats, Rat 3

CNC(=O)c1ccc(-c2cnc3ncc(Cc4ccc5ncccc5c4)n3n2)cc1F [INCB28060 hydrochloride]
concentration at 60 min [1]: 910 nM | concentration at 90 min [1]: 730 nM | concentration at 120 min [1]: 600 nM | concentration at 240 min [1]: 430 nM | concentration at 360 min [1]: 180 nM | concentration at 480 min [1]: 80 nM | concentration at 720 min [1]: 30 nM | concentration at 1440 min [1]: 10 nM | concentration at 5 min [2]: 15.3 nM | concentration at 60 min [2]: 616 nM | concentration at 90 min [2]: 394 nM | concentration at 120 min [2]: 305 nM | concentration at 240 min [2]: 465 nM | concentration at 360 min [2]: 193 nM | concentration at 480 min [2]: 88.5 nM | concentration at 720 min [2]: 62.6 nM | concentration at 1440 min [2]: 8.08 nM | concentration at 5 min [3]: 42.5 nM | concentration at 60 min [3]: 1210 nM | concentration at 90 min [3]: 961 nM | concentration at 120 min [3]: 725 nM | concentration at 240 min [3]: 333 nM | concentration at 360 min [3]: 148 nM | concentration at 480 min [3]: 42 nM | concentration at 720 min [3]: 13.1 nM | concentration at 1440 min [3]: 6.99 nM | concentration at 5 min [4]: 22.2 nM | concentration at 60 min [4]: 897 nM | concentration at 90 min [4]: 835 nM | concentration at 120 min [4]: 758 nM | concentration at 240 min [4]: 495 nM | concentration at 360 min [4]: 211 nM | concentration at 480 min [4]: 107 nM | concentration at 720 min [4]: 25.7 nM | concentration at 1440 min [4]: 15.6 nM | Clearance [5]: 89 mL/min/kg | Vss [5]: 24.325 L/kg | Vz [5]: 35.978 L/kg | thalf [5]: 283.79 min | concentration at 5 min [6]: 30 nM | concentration at 15 min [6]: 530 nM | concentration at 30 min [6]: 1030 nM | concentration at 15 min [7]: 399 nM | concentration at 30 min [7]: 784 nM | concentration at 15 min [8]: 732 nM | concentration at 30 min [8]: 1320 nM | concentration at 15 min [9]: 448 nM | concentration at 30 min [9]: 990 nM | AUC(0-t) (SD, rat, plasma, po, 20 umol/kg, AUC(0-t), SD rats, intragastric): 3.73 µM·h | AUC (SD, rat, plasma, po, 20 umol/kg, AUCextra, SD rats, intragastric): 0.0715 µM·h | AUC (SD, rat, plasma, po, 20 umol/kg, AUCtot, SD rats, intragastric): 3.8 µM·h | Cmax (SD, rat, plasma, po, 20 umol/kg, Cmax, SD rats, intragastric): 1030 nM | MRT (SD, rat, plasma, po, 20 umol/kg, MRT, SD rats, intragastric): 4.53 h | Tmax (SD, rat, plasma, po, 20 umol/kg, Tmax, SD rats, intragastric): 0.5 h | exposure in rats (comparison in words) (rats, 20 μmol/kg intragastric): not as good as that of crystal form A of SPH1772 ditartrate and crystal form A of SPH1772

— patent US10344035B2, “Salt of quinolone compound, polymorphs thereof, preparation method therefor, composition, and applications” (SHANGHAI PHARMACEUTICALS HOLDING CO., LTD., priority 2015, dated 2019)
